Results as given in patent publication US10869871B2, “Compositions and methods of modulating short-chain dehydrogenase activity” (CASE WESTERN RESERVE UNIVERSITY, priority 2013, dated 2020).

Legend:
Hepatocyte stability = format: in vitro ADME; settings: compound in presence of hepatocytes in culture; in words
Procedure: (§1) Time to inhibition refers to the time needed to inhibit the generation of NADH by 15-PGDH from the moment with drug is added into the reaction mix. Delta Tm refers to the shift in melting temperature of recombinant 15-PGDH in the presence of drug (with cofactor NADH also present). Concentration of Full Cell Line Reporter Induction refers to the concentration of drug that needs to be added to reporter cell line to achieve maximal induction of the 15-PGDH-luciferase gene fusion reporter cassette, as measured by luciferase assays. Hepatocyte stability refers to the half-life of compound in the presence of hepatocytes in culture. Toxicity refers to the concentration of compound needed to decrease cell numbers in a cell culture assay.

A549 cells = assay: PGE2 levels in medium of IL1-beta stimulated A549 cells; format: cell-based
[1] = Survival of mice after whole body irradiation; format: in vivo, mouse
colon = assay: Dextran sodium sulfate (DSS) induced colitis in FVB mice; format: in vivo, mouse; settings: 22 days of study
bone marrow [2] = assay: Competitive bone marrow transplant chimerism (CD45.2 donor treated); format: in vivo, mouse; settings: donor 5 mg/kg IP daily for 3 doses; weeks 12 and 16
Procedure: On day 3 mice were sacrificed, marrow flushed and mixed at a 1:1 ratio with vehicle treated CD45.1 marrow. 2 million whole BM cells were injected into the tail vein of lethally irradiated CD45.1 mice and percent chimerism measured via flow cytometry at weeks 8, 12, 16.

bone marrow [3] = assay: Bone marrow analysis of C57BL/6J mice treated IP; format: in vivo, mouse; settings: IP 5 mg/kg or 20 mg/kg
From the text: FIGS. […] Experimental conditions are noted on the figure.

[4] = 21 day toxicity study in FVB mice (daily weights); format: in vivo, mouse; settings: 5 mg/kg IP twice daily for 21 days
[5] = Survival of lethally irradiated mice after bone marrow transplant (30 days); format: in vivo, mouse; settings: 5 mg/kg IP bid
From the text: A matched control cohort received injections with vehicle only. On day one mice received an infusion of donor marrow at doses of 100,000 cells; 200,000 cells; or 500,000 cells. […] Among mice receiving 200,000 donor cells, all control mice were dead by day 12.

[6] = Survival of 11Gy irradiated C57BL/6J mice receiving bone marrow allograft; format: in vivo, mouse; settings: 5 mg/kg IP bid
From the text: The experimental design is depicted in FIG. 50.
Under the conditions of the mouse colony during this study, control mice receiving 100,000-500,000 cells are all dead between days 4-13 of study. […] Such activity would be of particular utility in settings, such as transplantation with umbilical cord stem cells, in which donor cell numbers are limited.

15-PGDH protein = assay: Western blot of 15-PGDH protein levels in treated cell lines; format: cell-based; settings: […] compound for 48 hours
cell culture = assay: Toxicity: concentration needed to decrease cell numbers in a cell culture assay; format: cell-based
Procedure: as §1

blood and bone marrow = assay: Blood and bone marrow recovery after transplant of 500,000 donor marrow cells; format: in vivo, mouse
[7] = test system: 15-PGDH-luciferase fusion reporter in V9m, LS174T and V503 colon cancer cell lines; assay: 15-PGDH-luciferase fusion reporter induction in colon cancer cell lines; format: cell-based; settings: V9m, LS174T, V503; relative to DMSO

## CCCC[S+]([O-])c1sc2nc(-c3cccs3)cc(-c3ccccc3)c2c1N (centres unmarked) [SW033291, 2-(butylsulfinyl)-4-phenyl-6-(thiophen-2-yl)thieno[2,3-b]pyridin-3-amine]
Hepatocyte stability
  Hepatocyte stability: Stable > couple hrs
A549 cells; 100 nM concentration of drug
  rank of PGE2 level in medium: next highest level of PGE2
A549 cells; IL1-beta 23 hours, compound added for last 5 hours
  PGE2 level in medium, reflecting 15-PGDH activity: clear inhibition of 15-PGDH activity
A549 cells; IL-1β 16 h, compound 8 h
  highest PGE2 level achieved in medium: 3000 pg/mL
[1]; 7 Gy, 5 mg/kg IP daily for 7 doses, Day 0
  number of mice surviving: 3
[1]; 7 Gy, 5 mg/kg IP daily for 7 doses, Day 6
  number of mice surviving: 3
[1]; 7 Gy, 5 mg/kg IP daily for 7 doses, Day 7
  number of mice surviving: 3
[1]; 7 Gy, 5 mg/kg IP daily for 7 doses, Day 8
  number of mice surviving: 3
[1]; 7 Gy, 5 mg/kg IP daily for 7 doses, Day 9
  number of mice surviving: 3
[1]; 7 Gy, 5 mg/kg IP daily for 7 doses, Day 10
  number of mice surviving: 3
[1]; 7 Gy, 5 mg/kg IP daily for 7 doses, Day 11
  number of mice surviving: 3
[1]; 7 Gy, 5 mg/kg IP daily for 7 doses, Day 12
  number of mice surviving: 3
[1]; 7 Gy, 5 mg/kg IP daily for 7 doses, Day 13
  number of mice surviving: 3
[1]; 7 Gy, 5 mg/kg IP daily for 7 doses, Day 14
  number of mice surviving: 3
[1]; 7 Gy, 5 mg/kg IP daily for 7 doses, Day 15
  number of mice surviving: 3
[1]; 7 Gy, 5 mg/kg IP daily for 7 doses, Day 25 (cell reads Looks Healthy)
  appearance of mice: Healthy
[1]; 9 Gy, 5 mg/kg IP daily for 7 doses, Day 0
  number of mice surviving: 3
[1]; 9 Gy, 5 mg/kg IP daily for 7 doses, Day 6
  number of mice surviving: 3
[1]; 9 Gy, 5 mg/kg IP daily for 7 doses, Day 7
  number of mice surviving: 3
[1]; 9 Gy, 5 mg/kg IP daily for 7 doses, Day 8
  number of mice surviving: 3
[1]; 9 Gy, 5 mg/kg IP daily for 7 doses, Day 9
  number of mice surviving: 3
[1]; 9 Gy, 5 mg/kg IP daily for 7 doses, Day 10
  number of mice surviving: 3
[1]; 9 Gy, 5 mg/kg IP daily for 7 doses, Day 11
  number of mice surviving: 3
[1]; 9 Gy, 5 mg/kg IP daily for 7 doses, Day 12
  number of mice surviving: 2
[1]; 9 Gy, 5 mg/kg IP daily for 7 doses, Day 13
  number of mice surviving: 2
[1]; 9 Gy, 5 mg/kg IP daily for 7 doses, Day 14
  number of mice surviving: 1
[1]; 9 Gy, 5 mg/kg IP daily for 7 doses, Day 15
  number of mice surviving: 0
[1]; 11 Gy, 5 mg/kg IP 1 dose/daily for 7 days (Table 7), Day 0
  number of mice surviving: 3
[1]; 11 Gy, 5 mg/kg IP 1 dose/daily for 7 days (Table 7), Day 5
  number of mice surviving: 3
[1]; 11 Gy, 5 mg/kg IP 1 dose/daily for 7 days (Table 7), Day 6
  number of mice surviving: 3
[1]; 11 Gy, 5 mg/kg IP 1 dose/daily for 7 days (Table 7), Day 7
  number of mice surviving: 3
[1]; 11 Gy, 5 mg/kg IP 1 dose/daily for 7 days (Table 7), Day 8
  number of mice surviving: 2
[1]; 11 Gy, 5 mg/kg IP 1 dose/daily for 7 days (Table 7), Day 9
  number of mice surviving: 1
[1]; 11 Gy, 5 mg/kg IP 1 dose/daily for 7 days (Table 7), Day 10
  number of mice surviving: 0
[1]; 11 Gy, 5 mg/kg IP 1 dose/daily, continuous every day, Day 0
  number of mice surviving: 3
[1]; 11 Gy, 5 mg/kg IP 1 dose/daily, continuous every day, Day 5
  number of mice surviving: 3
[1]; 11 Gy, 5 mg/kg IP 1 dose/daily, continuous every day, Day 6
  number of mice surviving: 3
[1]; 11 Gy, 5 mg/kg IP 1 dose/daily, continuous every day, Day 7
  number of mice surviving: 3
[1]; 11 Gy, 5 mg/kg IP 1 dose/daily, continuous every day, Day 8
  number of mice surviving: 3
[1]; 11 Gy, 5 mg/kg IP 1 dose/daily, continuous every day, Day 9
  number of mice surviving: 2
[1]; 11 Gy, 5 mg/kg IP 1 dose/daily, continuous every day, Day 10
  number of mice surviving: 0
[1]; 11 Gy, 5 mg/kg IP 2 dose daily for 7 days, Day 0
  number of mice surviving: 3
[1]; 11 Gy, 5 mg/kg IP 2 dose daily for 7 days, Day 5
  number of mice surviving: 3
[1]; 11 Gy, 5 mg/kg IP 2 dose daily for 7 days, Day 6
  number of mice surviving: 3
[1]; 11 Gy, 5 mg/kg IP 2 dose daily for 7 days, Day 7
  number of mice surviving: 3
[1]; 11 Gy, 5 mg/kg IP 2 dose daily for 7 days, Day 8
  number of mice surviving: 3
[1]; 11 Gy, 5 mg/kg IP 2 dose daily for 7 days, Day 9
  number of mice surviving: 2
[1]; 11 Gy, 5 mg/kg IP 2 dose daily for 7 days, Day 10
  number of mice surviving: 0
[1]; 11Gy, 5 mg/kg IP daily for 7 doses
  longer survival versus vehicle: 48 h
[1]; 11 Gy, 5 mg/kg IP daily for 7 doses (Table 6), Day 0
  number of mice surviving: 3
[1]; 11 Gy, 5 mg/kg IP daily for 7 doses (Table 6), Day 5
  number of mice surviving: 3
[1]; 11 Gy, 5 mg/kg IP daily for 7 doses (Table 6), Day 6
  number of mice surviving: 3
[1]; 11 Gy, 5 mg/kg IP daily for 7 doses (Table 6), Day 7
  number of mice surviving: 3
[1]; 11 Gy, 5 mg/kg IP daily for 7 doses (Table 6), Day 8
  number of mice surviving: 3
[1]; 11 Gy, 5 mg/kg IP daily for 7 doses (Table 6), Day 9
  number of mice surviving: 2
[1]; 11 Gy, 5 mg/kg IP daily for 7 doses (Table 6), Day 10
  number of mice surviving: 0
[1]; 11Gy, any of the 5 mg/kg dosing schedules
  longer survival on average versus vehicle: 1 to 2 days
colon
  change from baseline weight versus control: greater weight at all time points
Bone marrow [2]
  percent blood chimerism of CD45.2 marked cells: significantly increased
Bone marrow [3]
  percent of Sca1+/c-Kit+ lineage negative (SKL) cells: unchanged
[4]
  mouse weight during treatment: no evidence for SW033291 reducing mouse weight
[5]; 100,000 donor cells
  median survival versus control: approximate doubling of median survival
[5]; 500,000 donor cells
  survival at 30 days: all survived
[6]; 1 × 10^5 donor cells, Day 0
  number of surviving mice: 3
[6]; 1 × 10^5 donor cells, Day 1
  number of surviving mice: 3
[6]; 1 × 10^5 donor cells, Day 2
  number of surviving mice: 3
[6]; 1 × 10^5 donor cells, Day 3
  number of surviving mice: 3
[6]; 1 × 10^5 donor cells, Day 4
  number of surviving mice: 2
[6]; 1 × 10^5 donor cells, Day 5
  number of surviving mice: 1
[6]; 1 × 10^5 donor cells, Day 6
  number of surviving mice: 0
[6]; 2 × 10^5 donor cells, Day 0
  number of surviving mice: 3
[6]; 2 × 10^5 donor cells, Day 1
  number of surviving mice: 3
[6]; 2 × 10^5 donor cells, Day 2
  number of surviving mice: 3
[6]; 2 × 10^5 donor cells, Day 3
  number of surviving mice: 3
[6]; 2 × 10^5 donor cells, Day 4
  number of surviving mice: 3
[6]; 2 × 10^5 donor cells, Day 5
  number of surviving mice: 3
[6]; 2 × 10^5 donor cells, Day 6
  number of surviving mice: 2
[6]; 2 × 10^5 donor cells, Day 7
  number of surviving mice: 2
[6]; 2 × 10^5 donor cells, Day 8
  number of surviving mice: 2
[6]; 2 × 10^5 donor cells, Day 9
  number of surviving mice: 2
[6]; 2 × 10^5 donor cells, Day 10
  number of surviving mice: 2
[6]; 2 × 10^5 donor cells, Day 11
  number of surviving mice: 2
[6]; 2 × 10^5 donor cells, Day 12
  number of surviving mice: 1
[6]; 2 × 10^5 donor cells, Day 13
  number of surviving mice: 0
[6]; 5 × 10^5 donor cells, Day 0
  number of surviving mice: 3
[6]; 5 × 10^5 donor cells, Day 1
  number of surviving mice: 3
[6]; 5 × 10^5 donor cells, Day 2
  number of surviving mice: 3
[6]; 5 × 10^5 donor cells, Day 3
  number of surviving mice: 3
[6]; 5 × 10^5 donor cells, Day 4
  number of surviving mice: 3
[6]; 5 × 10^5 donor cells, Day 5
  number of surviving mice: 3
[6]; 5 × 10^5 donor cells, Day 6
  number of surviving mice: 3
[6]; 5 × 10^5 donor cells, Day 7
  number of surviving mice: 3
[6]; 5 × 10^5 donor cells, Day 8
  number of surviving mice: 2
[6]; 5 × 10^5 donor cells, Day 9
  number of surviving mice: 2
[6]; 5 × 10^5 donor cells, Day 10
  number of surviving mice: 2
[6]; 5 × 10^5 donor cells, Day 11
  number of surviving mice: 2
[6]; 5 × 10^5 donor cells, Day 12
  number of surviving mice: 2
[6]; 5 × 10^5 donor cells, Day 13
  number of surviving mice: 2
[6]; 5 × 10^5 donor cells, Day 19
  number of surviving mice: 2
15-PGDH protein
  levels of 15-PGDH protein (western blot): increase levels of 15-PGDH protein
Cell culture
  Toxicity: >10 µM
Blood and bone marrow; day 5 after transplant
  total platelet count versus control: significantly higher total platelet count
  total white count versus control: significantly higher total white count
Blood and bone marrow; day 8 after transplant
  platelets: 77,000
Blood and bone marrow; day 12 after transplant
  neutrophils: 332
Blood and bone marrow; day 18 after transplant
  neutrophils: 835
[7]
  luciferase activity of 15-PGDH luciferase fusion cells: increase luciferase activity
